In US20030187240A1, “2' -modified oligonucleotides” (ISIS Pharmaceuticals, Inc., priority 1990, published 2003):
d = 2'-deoxy (DNA); m = 2'-O-methyl; f = 2'-fluoro

How the values were obtained:
[1] = test system: codon-12 point mutation of mutant (activated) H-ras RNA; assay type: cell-based, human
ras mRNA = test: Northern blot analysis of ras expression in T24 cells; assay type: cell-based, human; design: inhibition of ras expression / decrease of ras mRNA: concentration or dose not given beside the values
Protocol: The human urinary bladder cancer cell line T24 was obtained from the American Type Culture Collection (Rockville Md.). Cells were grown in McCoy's 5A medium with L-glutamine (GIBCO-BRL, Gaithersburg, Md.), supplemented with 10% heat-inactivated fetal calf serum and 50 U/ml each of penicillin and streptomycin. Cells were seeded on 100 mm plates. When they reached 70% confluency, they were treated with oligonucleotide. Plates were washed with 10 ml prewarmed PBS and 5 ml of OptiMEM (GIBCO) reduced-serum medium containing 2.5 μl DOTMA. Oligonucleotide was then added to the desired concentration. After 4 hours of treatment, the medium was replaced with McCoy's medium. Cells were harvested 48 hours after oligonucleotide treatment and RNA was isolated using a standard CsCl purification method. [Kingston in Current Protocols in Molecular Biology, F. M. Ausubel, R. Brent, R. E. Kingston, D. D. Moore, J. A. Smith, J. G. Seidman and K. Strahl, Eds., John Wiley and Sons, New York.] The human epithelioid carcinoma cell line HeLa 229 was obtained from the American Type Culture Collection (Bethesda, Md.). HeLa cells were maintained as monolayers on 6-well plates in Dulbecco's Modified Eagle's medium (DMEM) supplemented with 10 fetal bovine serum and 100 U/ml penicillin. Treatment with oligonucleotide and isolation of RNA were essentially as described above for T24 cells.
Northern hybridization: 10 μg of each RNA was electrophoresed on a 1.2% agarose/formaldehyde gel and transferred overnight to GeneBind 45 nylon membrane (Pharmacia LKB, Piscataway, N.J.) using standard methods. [Kingston in Current Protocols in Molecular Biology, F. M. Ausubel, R. Brent, R. E. Kingston, D. D. Moore, J. A. Smith, J. G. Seidman and K. Strahl, Eds., John Wiley and Sons, New York.] RNA was UV-crosslinked to the membrane. Double-stranded ^32P-labeled probes were synthesized using the Prime a Gene labeling kit (Promega, Madison Wis.). The ras probe was a SalI-NheI fragment of a cDNA clone of the activated (mutant) H-ras mRNA having a GGC-to-GTC mutation at codon-12. The control probe was G3PDH. Blots were prehybridized for 15 minutes at 68° C. with the QuickHyb hybridization solution (Stratagene, La Jolla, Calif.). The heat-denatured radioactive probe (2.5×10^6 counts/2 ml hybridization solution) mixed with 100 μl of 10 mg/ml salmon sperm DNA was added and the membrane was hybridized for 1 hour at 68° C. The blots were washed twice for 15 minutes at room temperature in 2×SSC/0.1% SDS and once for 30 minutes at 60° C. with 0.1×SSC/0.1%SDS. Blots were autoradiographed and the intensity of signal was quantitated using an ImageQuant PhosphorImager (Molecular Dynamics, Sunnyvale, Calif.). Northern blots were first hybridized with the ras probe, then stripped by boiling for 15 minutes in 0.1×SSC/0.1%SDS and rehybridized with the control G3PDH probe to check for correct sample loading.

[2] = test system: complementary RNA strand (the sense strand); test: Thermal melting analysis of 2′-deoxy-2′-fluoro modified oligonucleotides (Table 1); assay type: binding
[3] = test system: RNA complement “Y” strand ribo(3′GAG CAU GGY AAG GCC AGG5′); test: Base-pair specificity: single base-pair mismatches and a bulge (Table 2); assay type: binding
Protocol: The ability of the 2′-modified oligonucleotides to hybridize to their complementary RNA or DNA sequences was determined by thermal melting analysis. The RNA complement was synthesized from T7 RNA polymerase and a template-promoter of DNA synthesized with an Applied Biosystems, Inc. 380B RNA species was purified by ion exchange using FPLC (LKB Pharmacia, Inc.). Natural antisense oligonucleotides or those containing 2′-modifications at specific locations were added to either the RNA or DNA complement at stoichiometric concentrations and the absorbance (260 nm) hyperchromicity upon duplex to random coil transition was monitored using a Gilford Response II spectrophotometer. These measurements were performed in a buffer of 10 mM Na-phosphate, pH 7.4, 0.1 mM EDTA, and NaCl to yield an ionic strength of 10 either 0.1 M or 1.0 M. Data was analyzed by a graphic representation of 1/Tm vs ln[Ct], where [Ct] was the total oligonucleotide concentration. From this analysis the thermodynamic parameters were determined. Based upon the information gained concerning the stability of the duplex of heteroduplex formed, the placement of modified pyrimidine into oligonucleotides were assessed for their effects on helix stability.
Base-pair specificity of 2′-deoxy-2′-fluoro modified oligonucleotides with the RNA complement (a “Y” strand) was determined by effecting single base-pair mismatches and a bulge. […] In Table 2, the underlined nucleotides represent nucleotides that include a 2′-deoxy-2′-fluoro substituent.

[4] = G°37, antisense strand duplexed with RNA sense strand
[5] = first Tm column, duplex with RNA sense strand
[6] = difference (delta Tm) to the unmodified strand
[7] = difference to the unmodified strand
[8] = Y = C, mismatch, difference to Watson-Crick
[9] = Y = G, mismatch, difference to Watson-Crick
[10] = Y = None, bulged T/U, difference to Watson-Crick
[11] = Y = U, mismatch, difference to Watson-Crick

3975 (CCACACCGACGGCGCCC; chimeric 2'-O-methyl phosphorothioate, pattern not given here) [Oligonucleotide 3975]
inhibition of ras-luciferase activity [1]: neither of the oligonucleotides having either the one or the three 2′-deoxy-erythro-pentofuranosyl nucleotide subsequences showed significant activity

3979 (CCACACCGACGGCGCCC; chimeric 2'-O-methyl phosphorothioate, pattern not given here) [Oligonucleotide 3979]
activity at the highest concentration dose [1]: measurable activity | inhibition of ras-luciferase activity [1]: neither of the oligonucleotides having either the one or the three 2′-deoxy-erythro-pentofuranosyl nucleotide subsequences showed significant activity

3980 (CCACACCGACGGCGCCC; chimeric 2'-O-methyl phosphorothioate, pattern not given here) [Oligonucleotide 3980]
inhibition of ras expression / decrease of ras mRNA (ras mRNA): 61% | inhibition of ras-luciferase activity [1]: next greatest inhibition

3984 (CCACACCGACGGCGCCC; chimeric 2'-O-methyl phosphorothioate, pattern not given here) [Oligonucleotide 3984]
inhibition of ras expression / decrease of ras mRNA (ras mRNA): 81% | inhibition of ras-luciferase activity [1]: greater inhibition of ras-luciferase activity than did oligonucleotide 2570

4998 (CTTATATTCCGTCATCGCTC; sugars from the 5' end m6 d7 m7, all phosphorothioate, methylation of C and T or U not given here) [Oligonucleotide 4998]
inhibition of ras expression / decrease of ras mRNA (ras mRNA): 84%

CTTATATTCCGTCATCGCTC [Oligonucleotide 2502]
inhibition of ras expression / decrease of ras mRNA (ras mRNA): 26%

CTC GTA CCT TCC GGT CC (CTCGTACCTTCCGGTCC; listed as DNA, chemistry not fully specified) [reference compound]
G°37 [2, 4]: -14.57 ± 0.13 kcal/mol | Tm (° C.) [2, 5]: 61.6 °C

CUC GUA CCU UCC GGU CC (CUCGUACCUUCCGGUCC; 2'-deoxy-2'-fluoro A, T, C, chemistry not fully specified)
G°37 [2, 4]: -27.81 ± 0.05 kcal/mol | Tm (° C.) [2, 6]: +1.4 °C | G°37 [2, 7]: -13.24 ± 0.14 kcal/mol | Tm (° C.) [2, 5]: 81.6 °C

C^MC^MA^M C^MA^MC^M CdGdAd CdGdG^M C^MG^MC^M C^MC^M [Oligonucleotide 3980]
inhibition of ras expression in T24 cells (ras mRNA; result in words): inhibited ras expression

CsCsAsCsAsCsCsGsAoCsGsGsCsGsCsCsC [Oligonucleotide 4248]
effect on ras expression (ras-luciferase reporter system), chimeric backbone-modified oligonucleotides [1]: just as active as a full P═S molecule

deoxy(CTC GTA CCT TTC CGG TCC) (CTCGTACCTTTCCGGTCC; DNA, backbone not given here) [reference compound]
G°37 ([3]; Y = A, Watson-Crick): -14.57 ± 0.13 kcal/mol | Tm (° C.) ([3]; Y = A, Watson-Crick): 61.6 °C | G°37 ([3]; Y = C, mismatch): -12.78 ± 0.11 kcal/mol | Tm (° C.) ([3]; Y = C, mismatch): 54.4 °C | G°37 [3, 8]: 1.79 ± 0.17 kcal/mol | Tm (° C.) [3, 8]: −7.2 °C | G°37 ([3]; Y = G, mismatch): -16.39 ± 0.25 kcal/mol | Tm (° C.) ([3]; Y = G, mismatch): 61.7 °C | G°37 [3, 9]: -1.82 ± 0.28 kcal/mol | Tm (° C.) [3, 9]: 0.1 °C | G°37 ([3]; Y = None, bulged T/U): -14.86 ± 0.35 kcal/mol | Tm (° C.) ([3]; Y = None, bulged T/U): 59.4 °C | G°37 [3, 10]: -0.284 ± 0.37 kcal/mol | Tm (° C.) [3, 10]: −2.2 °C | G°37 ([3]; Y = U, mismatch): -13.48 ± 0.17 kcal/mol | Tm (° C.) ([3]; Y = U, mismatch): 55.9 °C | G°37 [3, 11]: 1.09 ± 0.22 kcal/mol | Tm (° C.) [3, 11]: −5.7 °C

deoxy(CUC GUA CCU UUC CGG UCC) (CUCGUACCUUUCCGGUCC; sugars from the 5' end fffdfffffffffddffd, backbone, methylation of C and T or U not given here)
G°37 ([3]; Y = A, Watson-Crick): -27.80 ± 0.05 kcal/mol | Tm (° C.) ([3]; Y = A, Watson-Crick): 81.6 °C | G°37 ([3]; Y = C, mismatch): -21.98 ± 0.28 kcal/mol | Tm (° C.) ([3]; Y = C, mismatch): 73.8 °C | G°37 [3, 8]: 5.82 ± 0.28 kcal/mol | Tm (° C.) [3, 8]: −7.8 °C | G°37 ([3]; Y = G, mismatch): -21.69 ± 0.16 kcal/mol | Tm (° C.) ([3]; Y = G, mismatch): 77.8 °C | G°37 [3, 9]: 6.12 ± 0.17 kcal/mol | Tm (° C.) [3, 9]: −3.8 °C | G°37 ([3]; Y = None, bulged T/U): -22.87 ± 0.27 kcal/mol | Tm (° C.) ([3]; Y = None, bulged T/U): 75.5 °C | G°37 [3, 10]: 4.94 ± 0.27 kcal/mol | Tm (° C.) [3, 10]: −6.2 °C | G°37 ([3]; Y = U, mismatch): -18.68 ± 0.15 kcal/mol | Tm (° C.) ([3]; Y = U, mismatch): 73.6 °C | G°37 [3, 11]: 9.13 ± 0.16 kcal/mol | Tm (° C.) [3, 11]: −8.0 °C | specificity of duplex formation with the RNA complement ([3]; versus like-sequenced unmodified oligonucleotide): greater specificity than a like-sequenced unmodified oligonucleotide

oligonucleotide with the 2′-O-propyl diester flanking regions: SEQ ID NO: 1, phosphorothioate in the 7-base deoxy gap only, phosphodiester 2′-O-propyl flanking regions (DNA CCACACCGACGGCGCCC; 2'-O-propyl flanks, phosphorothioate gap, chemistry not fully specified)
effect on ras expression (ras-luciferase reporter system), chimeric backbone-modified oligonucleotides [1]: able to inhibit ras expression

ps(CGA CTA TGC AAG TAC) [reference compound]
G°37 [2, 4]: -7.58 ± 0.06 kcal/mol | Tm (° C.) [2, 6]: −11.2 °C | Tm (° C.) [2, 5]: 33.9 °C

ps(CGA CUA UGC AAG UAC)
G°37 [2, 4]: -15.90 ± 0.34 kcal/mol | Tm (° C.)/subst. ([2]; delta Tm per 2′-fluoro substitution): +2.5 °C | Tm (° C.) [2, 6]: +27.0 °C | G°37 [2, 7]: -8.32 ± 0.34 kcal/mol | Tm (° C.) [2, 5]: 60.9 °C
